We go through five compounds from publication PMC3192012 (Biochemistry, 2011).

Experiment [1] has as its target T1, His6P4H1 (Dictyostelium discoideum, UniProt Q86KR9). Description: […]CO2-release assay with Skp1A. It counts as biochemical. To be noted: 0.05 mM [1-14C]αKG, 5 µM Skp1A, 5 µM Fe(II), 1 mM ascorbate, pH 7.4, 29 °C, αKG antagonist.
Experiment [2] deals with T1, His6P4H1. Briefly: […]CO2-release assay with Skp1A. The format is biochemical. To be noted: read-out: % inhibition at 1 mM.

T1 sequence (Q86KR9 whole entry): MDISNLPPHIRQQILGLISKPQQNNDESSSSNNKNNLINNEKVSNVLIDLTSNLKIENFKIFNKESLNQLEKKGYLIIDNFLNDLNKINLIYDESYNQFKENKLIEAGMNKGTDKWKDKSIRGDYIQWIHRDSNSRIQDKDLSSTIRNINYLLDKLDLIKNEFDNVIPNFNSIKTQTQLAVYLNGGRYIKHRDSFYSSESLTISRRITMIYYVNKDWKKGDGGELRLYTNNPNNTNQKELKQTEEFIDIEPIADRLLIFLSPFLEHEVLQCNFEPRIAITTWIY

As for `O=C(O)c1ccc(O)c(O)c1` [PCA], in experiment [1], the “% inhibition” value is “the αKG antagonists DMOG and PCA, and CoCl2 (Fig. 1D)”. `O=C(O)CCC(=O)O` [succinate]: the inhibition (in general, the change of the read-out against control, counted positive when it falls) at 1000 µM in experiment [2] is 50 to 70%. Still for that read-out and setting: as for `O=C(O)CC(=O)C(=O)O` [oxaloacetate], the figure is 50 to 70%; as for `O=C(O)/C=C/C(=O)O` [fumarate], 50 to 70%. On to `COC(=O)CNC(=O)C(=O)OC` [DMOG], for which the “% inhibition” value in experiment [1] (EtOH carrier) was “the αKG antagonists DMOG and PCA, and CoCl2 (Fig. 1D)”.
